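Results reflect a 48-hour exposure of cells in 96-well plates to compound at five concentrations. TGI: concentration producing complete growth inhibition.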
Tests used:
Experiment in all cases: NCI-60 cell line screen, 48 h
T-47D breast = system: T-47D breast
A498 renal = system: A498 renal
NCI-H23 lung = system: NCI-H23 lung
M14 melanoma = system: M14 melanoma
RXF 393 renal = system: RXF 393 renal
SK-OV-3 ovarian = system: SK-OV-3 ovarian
SNB-75 CNS = system: SNB-75 CNS
786-0 renal = system: 786-0 renal
HOP-62 NSCLC = system: HOP-62 NSCLC
SR leukemia = system: SR leukemia
HCT-15 colon = system: HCT-15 colon
OVCAR-5 ovarian = system: OVCAR-5 ovarian
OVCAR-4 ovarian = system: OVCAR-4 ovarian
MOLT-4 leukemia = system: MOLT-4 leukemia
SNB-19 CNS = system: SNB-19 CNS
SK-MEL-2 melanoma = system: SK-MEL-2 melanoma
HT29 colon = system: HT29 colon
UACC-257 melanoma = system: UACC-257 melanoma
NCI-H522 lung = system: NCI-H522 lung
MDA-MB-231 breast = system: MDA-MB-231 breast

SMILES | TGI (T-47D breast) | TGI (A498 renal) | TGI (NCI-H23 lung) | TGI (M14 melanoma) | TGI (RXF 393 renal) | TGI (SK-OV-3 ovarian) | TGI (SNB-75 CNS) | TGI (786-0 renal) | TGI (HOP-62 NSCLC) | TGI (SR leukemia) | TGI (HCT-15 colon) | TGI (OVCAR-5 ovarian) | TGI (OVCAR-4 ovarian) | TGI (MOLT-4 leukemia) | TGI (SNB-19 CNS) | TGI (SK-MEL-2 melanoma) | TGI (HT29 colon) | TGI (UACC-257 melanoma) | TGI (NCI-H522 lung) | TGI (MDA-MB-231 breast)
CCCCc1ccc(-n2sc3ncc(-c4ccccc4)cc3c2=O)cc1 | 69.5 µM | > 100 µM | > 100 µM | > 100 µM | > 100 µM | > 100 µM | > 100 µM | > 100 µM | > 100 µM | > 100 µM | > 100 µM | > 100 µM | > 100 µM | > 100 µM | > 100 µM | > 100 µM | – | – | – | –
C1CCCCC2(CCCCCCCCC3(CCC1)SCCS3)SCCS2 | > 100 µM | > 100 µM | > 100 µM | > 100 µM | – | > 100 µM | > 100 µM | > 100 µM | > 100 µM | > 100 µM | > 100 µM | > 100 µM | > 100 µM | – | > 100 µM | > 100 µM | > 100 µM | > 100 µM | > 100 µM | –
CCC1=CCN(c2cc(C)ccn2)OC1c1ccccc1 (stereo not given) | – | – | > 100 µM | > 100 µM | 68 µM | > 100 µM | > 100 µM | > 100 µM | > 100 µM | 55.7 µM | > 100 µM | > 100 µM | > 100 µM | > 100 µM | > 100 µM | 43.7 µM | > 100 µM | > 100 µM | 62.1 µM | –
N#CCCN(CCC#N)c1ccc(/C=C2\N=C(c3ccccc3)N(c3ccc(C(=O)O)cc3)C2=O)cc1 | > 100 µM | > 100 µM | – | > 100 µM | > 100 µM | > 100 µM | – | > 100 µM | > 100 µM | – | > 100 µM | > 100 µM | 66.8 µM | – | > 100 µM | > 100 µM | > 100 µM | > 100 µM | – | > 100 µM
COc1ccc2oc(S(=O)(=O)N3CC(CCl)c4ccc(N)cc43)cc2c1 (stereo not given) | > 100 µM | > 52.1 µM | > 100 µM | > 100 µM | – | > 100 µM | > 100 µM | > 10.6 µM | > 100 µM | – | > 23.9 µM | > 100 µM | > 100 µM | > 54.5 µM | > 100 µM | > 100 µM | 10.1 µM | > 100 µM | > 67.6 µM | > 24.9 µM
COC1(C2c3ccccc3CCN2C(=O)OC(C)(C)C)C(=O)C(c2ccccc2)=C1N(C)C (stereo not given) | > 100 µM | 62.6 µM | 71.6 µM | > 100 µM | > 100 µM | > 100 µM | > 100 µM | 93.3 µM | > 100 µM | > 100 µM | > 100 µM | > 100 µM | > 100 µM | > 100 µM | > 100 µM | 66.5 µM | 43.9 µM | > 100 µM | 56.8 µM | –
OC1=CN=COc2ccccc21 | – | > 100 µM | > 100 µM | > 100 µM | > 100 µM | > 100 µM | > 100 µM | > 100 µM | > 100 µM | – | > 100 µM | – | > 100 µM | > 100 µM | > 100 µM | > 100 µM | > 100 µM | > 100 µM | – | –
CC(=O)c1ccc(NC(=O)C(=O)C(C(=O)/C=C/c2ccccc2)C2OC(=O)c3ccccc32)cc1 (stereo not given) | – | > 100 µM | > 100 µM | > 100 µM | > 100 µM | > 100 µM | > 100 µM | > 100 µM | > 100 µM | > 100 µM | > 100 µM | > 100 µM | > 100 µM | > 100 µM | > 100 µM | > 100 µM | > 100 µM | > 100 µM | > 100 µM | –
COC(=O)CCC1(CCC(=O)OC)CCCCCCC(CCC(=O)OC)(CCC(=O)OC)C(=O)C1=O | > 100 µM | > 100 µM | > 100 µM | > 100 µM | > 100 µM | > 100 µM | > 100 µM | > 100 µM | > 100 µM | – | > 100 µM | > 100 µM | – | – | > 100 µM | > 100 µM | > 100 µM | > 100 µM | > 100 µM | –
O=c1cc(-c2ccccc2)[nH]c2cc(F)cc(F)c12 | – | – | > 100 µM | > 100 µM | 81.7 µM | > 100 µM | 46.9 µM | > 100 µM | > 100 µM | > 100 µM | > 100 µM | > 100 µM | > 100 µM | > 100 µM | – | 84.4 µM | > 100 µM | > 100 µM | 35.3 µM | –
c1ccc2cc3c(NC4=NCCO4)cccc3cc2c1 | – | > 100 µM | > 100 µM | > 100 µM | > 100 µM | > 100 µM | > 100 µM | > 100 µM | > 100 µM | > 100 µM | > 100 µM | > 100 µM | > 100 µM | > 100 µM | > 100 µM | > 100 µM | 80.4 µM | > 100 µM | > 100 µM | > 100 µM
CCCCCCC(O)CC[C@H]1CCC[C@@H](C)N1 (stereo not given in full) | – | > 10 µM | < 10 µM | > 100 µM | > 100 µM | > 100 µM | > 31.6 µM | < 10 µM | > 31.6 µM | > 100 µM | > 31.6 µM | < 10 µM | < 10 µM | > 100 µM | < 10 µM | < 10 µM | > 31.6 µM | < 10 µM | > 100 µM | –
COC/N=C(\NC#N)NCOC | – | > 100 µM | > 100 µM | > 100 µM | > 63.3 µM | > 100 µM | > 100 µM | > 74.6 µM | > 100 µM | 54.6 µM | > 59.4 µM | > 100 µM | > 100 µM | > 100 µM | > 100 µM | > 100 µM | > 100 µM | > 100 µM | > 100 µM | –
CCOC(=O)c1sc2c(c1OC(=O)c1cc(OC)c(OC)c(OC)c1)c(=O)n(-c1ccccc1)c(=S)n2-c1ccccc1 | > 100 µM | > 100 µM | > 100 µM | > 100 µM | > 100 µM | > 100 µM | > 100 µM | > 100 µM | > 100 µM | – | > 100 µM | > 100 µM | > 100 µM | > 100 µM | > 100 µM | – | > 100 µM | > 100 µM | 63.1 µM | > 100 µM

Source: PubChem BioAssay (NCI)
